Laboratory results from PMC7932537, “Quantitative profiling of protease specificity” (PLoS Computational Biology, 2021).

Key:
MMP-2 [1] = target: T1, MMP-2 (Homo sapiens, UniProt P08253); assay: kcat/KM of synthetic peptides derived from substrate phage selections; type: biochemical; conditions: synthetic hexamer peptides; recombinant MMP-2 catalytic domain, APMA-activated; determined in triplicate as described in ref 27
T1 construct: The recombinant catalytic domains of MMP-2 and -9 were expressed in HEK293 cells; made in house; host or cells: HEK293 cells, stably transfected; purified from serum-free medium on Gelatin Sepharose 4B
T1 sequence (P08253 110-446 limits assumed): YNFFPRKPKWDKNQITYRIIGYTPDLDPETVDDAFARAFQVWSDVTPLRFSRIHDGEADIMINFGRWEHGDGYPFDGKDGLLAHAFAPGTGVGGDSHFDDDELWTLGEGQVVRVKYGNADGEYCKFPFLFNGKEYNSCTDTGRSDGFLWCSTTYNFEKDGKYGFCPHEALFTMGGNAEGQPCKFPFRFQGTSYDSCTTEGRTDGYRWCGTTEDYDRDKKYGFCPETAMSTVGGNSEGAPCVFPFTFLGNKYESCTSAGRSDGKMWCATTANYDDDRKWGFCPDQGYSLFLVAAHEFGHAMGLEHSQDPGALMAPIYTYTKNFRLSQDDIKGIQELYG
Description: (§1) K(obs) obtained for each of the 1369 substrates has a range of 0 and 12,792 (M^-1 s^-1) due to the experimental conditions used in the study. So, all substrates with the true K(obs) above this value will nevertheless have a K(obs) equal to the preset maximum. With this limitation in mind, we corroborated the results using synthetic peptides, thereby extending the correlation to the entire range of kcat/KM values for each MMP. We performed a correlation analysis using a set of 100 peptides with sequences derived from substrate phage selections and their kcat/KM values were experimentally determined as described in [27] (S8 Table).
(§2) The recombinant catalytic domains of MMP-2 and -9 were expressed in HEK293 cells stably transfected with respective constructs and purified from serum-free culture medium using Gelatin Sepharose 4B (GE Healthcare) as described in [29, 35]. Following activation with APMA (Sigma-Aldrich), the amount of active enzyme was determined by active site titration using GM6001 (Sigma-Aldrich). The kcat/KM values of 100 peptides derived from phage substrates […] were determined in triplicate as described in [27].
(§3) Supplementary file pcbi.1008101.s010.xlsx: S8 Table Table of 100 peptide set derived from substrate phage selections of MMP-2 and 9, for which kcat/KM values were experimentally determined. […]

MMP-9 [2] = assay: Substrate phage display with NGS: relative probability (RP) of P3-P1' tetramer clusters; type: biochemical, human; conditions: for relative probability (RP) (acc.to MMP9): RP of matching tetramer of the cleavage site, unique part of MMP9 selectome
MMP-9 [3] = target: MMP-9 (Homo sapiens, UniProt P14780); assay: kcat/KM of synthetic peptides derived from substrate phage selections; type: biochemical; design: The recombinant catalytic domains of MMP-2 and -9 were expressed in HEK293 cells; made in house; host or cells: HEK293 cells, stably transfected; purified from serum-free medium on Gelatin Sepharose 4B; conditions: MMP9; 100 set of synthetic hexamer peptide substrates; mean, SD and SEM in columns of their own
Chain of MMP-9 (Homo sapiens, UniProt P14780) (P14780 94-444 limits assumed): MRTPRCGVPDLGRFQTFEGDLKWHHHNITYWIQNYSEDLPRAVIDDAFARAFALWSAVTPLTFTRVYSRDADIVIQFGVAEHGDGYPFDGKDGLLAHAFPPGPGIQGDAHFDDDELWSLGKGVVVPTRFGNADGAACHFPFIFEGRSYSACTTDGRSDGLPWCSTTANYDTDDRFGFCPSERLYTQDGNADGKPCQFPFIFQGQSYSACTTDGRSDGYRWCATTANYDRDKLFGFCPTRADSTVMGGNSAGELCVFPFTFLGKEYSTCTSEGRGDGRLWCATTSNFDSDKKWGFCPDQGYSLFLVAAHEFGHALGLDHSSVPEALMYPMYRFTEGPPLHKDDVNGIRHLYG
Description: as §1, §2, §3

MMP-2 [4] = assay: Substrate phage display with NGS: relative probability (RP) of P3-P1' tetramer clusters; type: biochemical, human; conditions: for relative probability (RP) (acc.to MMP2): RP of matching tetramer of the cleavage site, unique part of MMP9 selectome
MMP-2 [5] = assay: N-terminomic (TMT) analysis of MMP-treated HEK293 secretome: isotopic enrichment of novel N-termini; type: biochemical, human; conditions: HEK293 secretome, 750 nM MMP-2, 2 h, 37 C; TMT reporter ratio vs untreated control, LC-MS/MS, duplicate
MMP-9 [6] = assay: as above; type: biochemical, human; conditions: for isotopic enrichment (log2(ratio)) (acc.to MMP9): HEK293 secretome, 750 nM MMP-9, 2 h, 37 C, TMT reporter ratio vs untreated control, LC-MS/MS, duplicate; for isotopic enrichment (log2(ratio)): MMP9 cleavages in HEK293 cell proteins, determined by LC-MS/MS, log2(ratio) range (>3σ, 2σ-3σ, 1σ-2σ)

Row | Substance | kcat/Km (MMP-2 [1]) [M⁻¹ s⁻¹] | relative probability (RP) (MMP-9 [2]; MMP9, RP of the P3-P1' tetramer contained in the hexamer substrate (substrate phage display, NGS)) | kcat/Km (MMP-9 [3]) [M⁻¹ s⁻¹] | relative probability (RP) (MMP-2 [4]; RP of the P3-P1' tetramer cluster contained in the hexamer, 200 nM MMP-2, 2 h, 37°C, two rounds of selection) | relative probability (RP) (acc.to MMP9) (MMP-9 [2]) | relative probability (RP) (acc.to MMP2) (MMP-2 [4]) | isotopic enrichment (log2(ratio)) (acc.to MMP2) (MMP-2 [5]) | isotopic enrichment (log2(ratio)) (acc.to MMP9) (MMP-9 [6]) | isotopic enrichment (log2(ratio)) (MMP-9 [6])
1 | DRKPKA | 0 | 1.5839 | 0 | 0.3523 |  |  |  |  | 
2 | KPPRL-VGGPMD [MS detected cleavage site in Cystatin-C (P01034)] |  |  |  |  | 7.12 | 0.07 | 0.8156 log2(ratio) | 1.9855 log2(ratio) | 1.9855
3 | LPPDH-LNGVKL |  |  |  |  | 13.06 | 2.08 | 1.257 log2(ratio) | 2.07 log2(ratio) | 2.07
4 | VVPWP-HVEGVE [MS detected cleavage site in N-acetylgalactosaminyltransferase 7 (Q86SF2)] |  |  |  |  | 15.08 | 0 | 1.195 log2(ratio) | 3.516 log2(ratio) | 3.516
5 | QQPFA-SVMTDE [MS detected cleavage site in Semaphorin-3D (O95025)] |  |  |  |  | 24.05 | 3.01 | 0.2016 log2(ratio) | 2.583 log2(ratio) | 2.583
6 | DSTMN-MLGGGG |  |  |  |  | 6.67 | 0 | 0.8797 log2(ratio) | 1.618 log2(ratio) | 1.618
7 | KHIYY-ITGETK [MS detected cleavage site in Heat shock protein HSP 90-alpha (P07900)] |  |  |  |  | 14.54 | 0.69 | 0.7225 log2(ratio) | 3.338 log2(ratio) | 3.338
